Results: patent EP0536208B1, “1,2-DIHYDRO-3H-DIBENZISOQUINOLINE-1,3-DIONE ANTICANCER AGENTS” (RESEARCH CORPORATION TECHNOLOGIES, INC., priority 1990, dated 1992)
Converted amounts (≈) assume the structure as drawn. Where two headings read alike, the source gives them in different places.

Experiments:
2780/AD = assay: In vitro tumor cell viability assay using MTT dye; assay type: cell-based, Human
Method: (§1) Compounds of the present invention were tested for their in vitro activity in tumor cells sensitive and resistant to standard anti-cancer agents. The tumor cell lines used in this protocol are 8226 human Myeloma^1; 8226/Dox-40^2, L-1210/Murine Leukemia, multidrug resistant L-210/^3, 2780 Human Ovarian Cancer and 2780/AD^4. Each of these resistant cell lines is known as a multidrug resistant or "MDR" cell line. These cell lines produce a 170,00 molecular weight membrane protein termed the P-glycoprotein which acts as an active drug efflux pump. Thus, once a cell produces the P-glycoprotein, it has the capability of pumping out of the cell a large variety of unrelated natural products. […] The protocol for measuring the effectiveness of compounds of the present invention is as follows: 2) In Vitro Tumor Cell Viability Assays Using MTT-Dye: Tumors are processed into a single cell suspension as described above. The cells are plated at a concentration of 3-5 X 10^4/1 mL well into plastic 96-well plates. […] Afterwards the medium containing the drug is removed, the cells are "washed" by centrifugation in fresh medium or phosphate-buffered saline (pH 7.4). A tetrazolium dye is then added (3,4,5-dimethylthiazol-2-yl)-2,5-diphenyl tetrazolium bromide (MTT). This dye forms a colored formazan product upon activation by mitochondrial reductases in viable cells. Typically, the formazan product is solubilized in acid-propanol or DMSO. The intensity of the color is proportional to viable cell numbers and this is quantitated by spectrophotometric absorbance ([…]) on a micro ELISA plate reader. Test results are calibrated in % control absorbance from untreated tumor cells (Mossman T: J Immunol Meth 65:55-63, 1983). Using the above procedure, Compound 1 was tested for its cytotoxic activity with respect to various tumor cell lines.

8226/DOX-40 = assay: In vitro tumor cell viability assay using MTT dye; assay type: cell-based, Human; conditions: for IC50: Homo sapiens
Method: as §1

Colon-38 Adenocarcinoma = assay: Tumor growth delay in mice, Colon-38 model; assay type: in vivo; conditions: 20mg implants in C57B/mice; 15 mg/kg; d3,6; intraperitoneally
Excerpt: Thus, in the lower level resistant cell lines, such as the ten-fold mitomycin C resistant L1210 and the tenfold adriamycin resistant 2780 ovarian cancer, Compound 1 maintained its complete activity as shown in Table II. The anti-tumor activity of compounds of the present invention in in vivo mouse murine models were studied. 3) Survival Studies In Tumor-Bearing Mice: 3.1 P-388 Leukemia Modles: One million P-388 leukemia cells originally obtained from American Type Culture Collection (Rockville, MD) are implanted into the peritoneum of adult DBA-2J male mice (Jackson Laboratories, Bar Harbor, ME). Twenty four hours later, drugs diluted in physiological saline are injected intraperitoneally at a volume of 0.1 mL/10 g body weight. The mice (10/group) are then followed for survival daily and compared to untreated tumor bearing mice. […] The perpendicular widths of the tumors are measured by caliper thrice weekly and converted to an estimated tumor mass according to the formula: ((1 X W)^2)/(2)= grams of tumor. [formula] wherein • W = width of tumor • l = length of tumor Tumor growth delay is calculated as the difference in days for tumors in treated mice to reach an estimated mass 750 mg or 1.5 g compared to that in untreated controls: Days to reach 750 mg (Treated - Control) = Days of Tumor Growth Delay [formula] […]

Melanoma = assay: Colony forming assay in fresh human tumors; assay type: cell-based; conditions: .001 ug/mL continuously, tumor cell survival of less than 50% of control
Method: (§2) The clonogenic assays were conducted in accordance with the procedure described hereinbelow: 1) Colony Forming Assays in Soft Agar: Fresh human or murine tumors are disaggregated into single cell suspensions using mechanical, hypoosmotic and/or enzymatic (trypsin) methods. The single cells (about 5 X 10^4-10^5) are plated in 35 mm plastic petri dishes onto a 1 ml "feeder layer" of 0.3% agar dissolved in growth medium containing 5-10% vol/vol of heat-inactivated fetal bovine serum, molten 0.3% agar and the antibiotics penicillin (100 u/mL) and streptomycin (100 ug/mL). Drug exposures can be performed for one hour or continuously (drugs added to final plating medium). Tumor cell colonies > 60 uM in size are counted by automated image analysis after 10-20 days of incubation in a humidified, 5-10% CO2-gassed environment maintained at 37°C. Inhibition of colony formation is calculated based on comparisons to control (untreated) plates wherein the growth of hundreds of colonies/plate is typical. […]
(§3) Fresh human tumor specimens disaggregated to single cell suspensions and exposed to .001 ug/mL of drug continuously. Percent survival represents the fraction of tumor colonies (> 60 uM size) obtained after drug treatment compared to untreated cells of the same tumor. […] Each tumor sample is analyzed in three different petri dishes (i.e., n = 3 for each sample).

FRESH HUMAN TUMORS = assay: Colony forming assay in fresh human tumors, all tumor types; assay type: cell-based; conditions: Total of all tumor types; .001 ug/mL continuously; tumor cell survival of less than 50% of control
Method: as §2, §3

For `CN(C)CCN1C(=O)c2cccc3cc4ccccc4c(c23)C1=O` [Compound 1, 2-[2'-(dimethylamino)ethyl]-1,2-dihydro-3H-dibenz(deh)isoquinoline-1,3-dione], which “Cross Resistance” value (2780/AD; 2780/AD versus 2780 Human Ovarian Cancer) is on record?
Its value is “None”.

And the IC50 (2780/AD; Homo sapiens, 96 h, 2780/AD MDR, P-glycoprotein (+), 10-fold resistance to Doxorubicin, 4-day drug exposure, MTT dye reduction)?
Its IC50 is 2.7 µg/mL (≈ 8.48 µM).

And the “Cross Resistance” value (8226/DOX-40; 8226/DOX-40 versus 8226 Human Myeloma)?
The value was 3-fold.

And the IC50 (8226/DOX-40; 96 h, 8226/DOX-40, 40-fold resistant to Doxorubicin, 4-day drug exposure, MTT dye reduction, read-out: Activity (IC50))?
The IC50 was 0.036 µg/mL (≈ 0.113 µM).

And the IC50 (8226/DOX-40; 8226 Myeloma Cells Resistant, continuous exposure, MTT dye assay, read-out: IC50 VALUES)?
The IC50 was 0.03 µg/mL (≈ 0.0942 µM).

What about the “Experimental Activity, Days of Tumor Growth Delay” value (Colon-38 Adenocarcinoma) of the same compound?
Its value is 6 days TT.

What about the “Overall Response” value (Melanoma) of the same compound?
Its value is 64%.

What about the “Overall Response” value (FRESH HUMAN TUMORS) of the same compound?
Its value is 51%.
